Results published in publication PMC8851638 (ACS Omega, 2022).
Converted amounts (≈) assume the structure as drawn. “And” between values parts separate entries of the source, which are not always exact repeats. Equal entries are not always repeated.

Key:
S. aureus (MDR00231) [1] = assay: Agar well-diffusion antimicrobial sensitivity assay; format: cell-based, Staphylococcus aureus; conditions: Staphylococcus aureus, read-out: Inhibition Zone (IZ)
[2] = tested on: S. epidermidis (MDR00223); assay: as above; format: cell-based, Staphylococcus epidermidis; conditions: Staphylococcus epidermidis, read-out: Inhibition Zone (IZ)
E. coli (MDR00501) [3] = assay: as above; format: cell-based; conditions: Escherichia coli, read-out: Inhibition Zone (IZ)
[4] = tested on: C. albicans100 (MDR00100); assay: as above; format: cell-based, Candida albicans; conditions: Candida albicans, read-out: Inhibition Zone (IZ)
[5] = tested on: C. albicans200 (MDR00200); assay: as above; format: cell-based, Candida albicans; conditions: Candida albicans, read-out: Inhibition Zone (IZ)
S. aureus (MDR00231) [6] = assay: MIC and MBC by broth microdilution; format: cell-based, Staphylococcus aureus
[7] = tested on: S. epidermidis (MDR00223); assay: MIC and MBC by broth microdilution; format: cell-based, Staphylococcus epidermidis
B. subtilis (MDR00423) = assay: MIC and MBC by broth microdilution; format: cell-based; conditions: B. subtilis; ratio in parentheses
E. coli (MDR00501) [8] = assay: MIC and MBC by broth microdilution; format: cell-based
A. baumannii (MDR00521) = assay: MIC and MBC by broth microdilution; format: cell-based; conditions: ratio in parentheses
K. pneumoniae (MDR00244) = assay: MIC and MBC by broth microdilution; format: cell-based; conditions: ratio in parentheses
[9] = tested on: C. albicans100 (MDR00100); assay: MIC and MFC by broth microdilution; format: cell-based, Candida albicans
[10] = tested on: C. albicans200 (MDR00200); assay: MIC and MFC by broth microdilution; format: cell-based, Candida albicans
S. aureus biofilm = assay: Staphylococcus biofilm mass reduction; format: cell-based; conditions: at their MIC
S. epidermidis biofilm = assay: Staphylococcus biofilm mass reduction; format: cell-based; conditions: at their MIC
S. aureus = assay: Single-step resistance selection; format: cell-based, Staphylococcus aureus; conditions: 4 × MIC, 48 h
S. epidermidis = assay: Single-step resistance selection; format: cell-based, Staphylococcus epidermidis; conditions: 4 × MIC, 48 h
B. subtilis = assay: Single-step resistance selection; format: cell-based; conditions: 4 × MIC, 48 h
E. coli = assay: Single-step resistance selection; format: cell-based; conditions: 4 × MIC, 48 h
A. baumannii [11] = assay: Single-step resistance selection; format: cell-based; conditions: 4 × MIC, 48 h
K. pneumoniae = assay: Single-step resistance selection; format: cell-based; conditions: 4 × MIC, 48 h
C. albicans100 [12] = assay: Single-step resistance selection; format: cell-based, Candida albicans; conditions: 4 × MIC, 48 h
C. albicans200 [13] = assay: Single-step resistance selection; format: cell-based, Candida albicans; conditions: 4 × MIC, 48 h
A. baumannii [14] = assay: Checkerboard combination assay with Ciprofloxacin; format: cell-based
C. albicans100 [15] = assay: Checkerboard combination assay with Ketoconazole; format: cell-based, Candida albicans
C. albicans200 [16] = assay: Checkerboard combination assay with Ketoconazole; format: cell-based, Candida albicans
RBCs = assay: Hemolytic assay; format: cell-based; conditions: human RBCs; compounds 1.0 mg/mL; Triton X-100 0.1% v/v; 37 °C, 35 min
E. coli DNA gyrase = E. coli DNA gyrase (Escherichia coli, UniProt P0AES4+P0AES6); assay: DNA gyrase inhibition; format: biochemical
Chain of E. coli DNA gyrase (P0AES4 whole entry, one chain of several): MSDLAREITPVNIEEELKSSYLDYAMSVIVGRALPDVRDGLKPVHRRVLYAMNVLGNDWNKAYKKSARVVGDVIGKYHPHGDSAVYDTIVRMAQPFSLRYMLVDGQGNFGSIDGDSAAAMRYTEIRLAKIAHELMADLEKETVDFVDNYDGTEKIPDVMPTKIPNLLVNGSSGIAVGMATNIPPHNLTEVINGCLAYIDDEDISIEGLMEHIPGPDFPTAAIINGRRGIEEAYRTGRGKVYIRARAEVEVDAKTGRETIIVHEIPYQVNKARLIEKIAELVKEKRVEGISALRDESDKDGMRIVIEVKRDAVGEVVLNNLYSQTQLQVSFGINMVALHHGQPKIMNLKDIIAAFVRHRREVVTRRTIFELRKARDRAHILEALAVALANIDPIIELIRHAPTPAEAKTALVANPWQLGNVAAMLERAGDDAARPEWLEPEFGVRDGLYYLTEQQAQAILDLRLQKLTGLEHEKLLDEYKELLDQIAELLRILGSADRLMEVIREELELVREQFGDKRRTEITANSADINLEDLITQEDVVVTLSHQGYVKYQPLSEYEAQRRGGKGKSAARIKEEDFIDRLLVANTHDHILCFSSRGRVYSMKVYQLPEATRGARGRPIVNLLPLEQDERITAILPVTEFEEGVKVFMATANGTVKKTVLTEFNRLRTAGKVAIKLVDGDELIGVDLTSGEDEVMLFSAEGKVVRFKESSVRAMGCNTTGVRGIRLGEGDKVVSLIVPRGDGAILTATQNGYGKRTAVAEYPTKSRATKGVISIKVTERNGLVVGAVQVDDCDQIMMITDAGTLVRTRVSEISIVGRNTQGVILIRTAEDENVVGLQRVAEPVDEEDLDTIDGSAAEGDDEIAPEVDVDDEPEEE

[17] = molecular target: T1, dihydrofolate reductase (DHFR) (Homo sapiens, UniProt P00374); assay: DHFR inhibition; format: biochemical
T1 sequence (P00374 1-187): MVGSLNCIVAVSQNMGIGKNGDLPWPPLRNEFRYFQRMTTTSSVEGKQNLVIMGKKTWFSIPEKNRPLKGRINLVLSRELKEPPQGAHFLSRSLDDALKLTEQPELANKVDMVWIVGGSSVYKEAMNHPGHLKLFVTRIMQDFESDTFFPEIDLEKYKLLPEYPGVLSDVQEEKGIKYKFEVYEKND

[18] = In vitro cytotoxicity on normal cell line; format: cell-based, mouse; conditions: mouse, BNL normal liver cells
[19] = tested on: BNL: mouse normal liver cells; assay: In vitro cytotoxicity on normal cell line; format: cell-based
[20] = In vitro cytotoxicity on normal cell line; format: cell-based, green monkey; conditions: green monkey, Vero kidney cells
[21] = tested on: Vero: green monkey kidney; assay: In vitro cytotoxicity on normal cell line; format: cell-based
[22] = In vitro cytotoxicity on normal cell line; format: cell-based, rat; conditions: rat, H9C2 heart/myocardium cells
[23] = tested on: H9C2: rat heart/myocardium; assay: In vitro cytotoxicity on normal cell line; format: cell-based
Gram-negative bacteria = assay: MIC broth microdilution, Gram-negative panel; format: cell-based; conditions: Gram-negative bacteria used in this study
[24] = tested on: clinical pathogenic isolates; assay: Single-step resistance selection, whole panel; format: cell-based; conditions: 4 × MIC
[25] = Candida albicans, read-out: MIC (mean ± SEM)

`Cc1c(NN=C(C#N)C2=NC(=O)CS2)c(=O)n(-c2ccccc2)n1C` [Compound 13, N-(1,5-Dimethyl-3-oxo-2-phenyl-2,3-dihydro-1H-pyrazol-4-yl)-4-oxo-4,5-dihydrothiazole-2-carbohydrazonoyl cyanide] gave a zone of inhibition at 100000 µg/mL (S. aureus (MDR00231) [1]) of 27 ± 0.82 mm, a zone of inhibition at 100000 µg/mL [2] of 25 ± 0.45 mm and a zone of inhibition at 100000 µg/mL (E. coli (MDR00501) [3]) of 28 ± 0.55 mm. It also gave a zone of inhibition at 100000 µg/mL [4] of 29 ± 0.25 mm, a zone of inhibition at 100000 µg/mL [5] of 28 ± 0.36 mm and an MBC/MIC (S. aureus (MDR00231) [6]; S. aureus, ratio in parentheses) of 1. It also gave an MIC (S. aureus (MDR00231) [6]; Staphylococcus aureus, read-out: MIC (mean ± SEM)) of 0.98 ± 0.2 µg/mL (≈ 2.77 µM), an MBC/MIC ([7]; S. epidermidis, ratio in parentheses) of 1 and an MIC ([7]; Staphylococcus epidermidis, read-out: MIC (mean ± SEM)) of 0.99 ± 0.3 µg/mL (≈ 2.79 µM). The MBC/MIC (B. subtilis (MDR00423)) was 2, the MBC/MIC (E. coli (MDR00501) [8]; E. coli, ratio in parentheses) was 0.5 and the MIC (E. coli (MDR00501) [8]; Escherichia coli, read-out: MIC (mean ± SEM)) was 0.49 ± 0.2 µg/mL (≈ 1.38 µM). For the same compound, the MBC/MIC (A. baumannii (MDR00521)) was 0.5, the MBC/MIC (K. pneumoniae (MDR00244)) was 2 and the MFC/MIC ([9]; C. albicans100, ratio in parentheses) was 2. For the same compound, the MIC [9, 25] was 0.99 ± 0.2 µg/mL (≈ 2.79 µM), the MFC/MIC ([10]; C. albicans200, ratio in parentheses) was 2 and the MIC [10, 25] was 0.98 ± 0.3 µg/mL (≈ 2.77 µM). For the same compound, the “reduction of biofilm formation” value (S. aureus biofilm) was 51.2%, the “reduction of biofilm formation” value (S. epidermidis biofilm) was 47.8% and the “Single-step resistance frequency (mutation frequency)” value (“Single-step resistance frequency” below) (S. aureus) was 2.73 × 10^–8. The “Single-step resistance frequency” value (S. epidermidis) was 4.15 × 10^–8, the “Single-step resistance frequency” value (B. subtilis) was 1.66 × 10^–9 and the “Single-step resistance frequency” value (E. coli) was 2.90 × 10^–8. The “Single-step resistance frequency” value (A. baumannii [11]) was 2.71 × 10^–7, the “Single-step resistance frequency” value (K. pneumoniae) was 3.22 × 10^–8 and the “Single-step resistance frequency” value (C. albicans100 [12]) was 2.92 × 10^–9. The “Single-step resistance frequency” value (C. albicans200 [13]) was 3.20 × 10^–8, the combination effect (A. baumannii [14]) was “S (S: synergism)” and the “fractional inhibitory concentration index (FICI)” value (A. baumannii [14]) was 0.5. The combination effect (C. albicans100 [15]) was “S (S: synergism)”, the “fractional inhibitory concentration index (FICI)” value (C. albicans100 [15]) was 0.5 and the combination effect (C. albicans200 [16]) was “S (S: synergism)”. For the same compound, the “fractional inhibitory concentration index (FICI)” value (C. albicans200 [16]) was 0.5, the “%lysis of RBCs” value (RBCs) was 15.22% and 15.22 ± 0.43% and the IC50 (E. coli DNA gyrase) was 31.64 ± 0.17 µM. For the same compound, the IC50 [17] was 2.67 ± 0.14 µM, the IC50 at 72 h [18] was 79.5 ± 1.67 µM and the “Selectivity index against DHFR” value ([19]; IC50 of BNL / IC50 of DHFR) was 29.78. For the same compound, the “Selectivity index against DNA gyrase” value ([19]; IC50 of BNL / IC50 of DNA gyrase) was 2.51, the IC50 at 72 h [20] was 74.8 ± 2.12 µM and the “Selectivity index against DHFR” value ([21]; IC50 of Vero / IC50 of DHFR) was 28.02. For the same compound, the “Selectivity index against DNA gyrase” value ([21]; IC50 of Vero / IC50 of DNA gyrase) was 2.36, the IC50 at 72 h [22] was 61.6 ± 1.64 µM and the “Selectivity index against DHFR” value ([23]; IC50 of H9C2 / IC50 of DHFR) was 23.06. The “Selectivity index against DNA gyrase” value ([23]; IC50 of H9C2 / IC50 of DNA gyrase) was 1.94, the “MIC, range over panel” value (Gram-negative bacteria) was 0.43 to 0.98 µg/mL and the “mutation frequency, range over panel” value [24] was 2.71 × 10^–7 to 2.92 × 10^–9.
